Results published in patent US20230278954A1, “BRANCHED LIPID COMPOUDS” (priority 2020, published 2023).
“And” between values parts separate entries of the source, which are not always exact repeats. Equal values may be shown once.

Tests used:
[1] = biological target: T1, mouse TLR2 (Mus musculus, UniProt Q9QUN7); assay: HEK-Blue mTLR2 dose response (SEAP reporter); format: cell-based
T1 construct: expressed in transfected cells; host or cells: HEK-Blue mTLR2 cells
Procedure: (§1) Toll-Like Receptor (TLR) stimulation is tested by assessing NF-KB activation in the TLR expressing cell lines. HEK-Blue h/mTLR2 cells have been stably transfected with human or mouse TLR2 and CD14. The activity of the test articles are tested on human and mouse TLR2, as potential agonists. The test articles are evaluated at seven concentrations and compared to control ligands (see list below). These steps are performed in triplicate.
(§2) A 5 µg/mL working stock was then prepared for each compound from the 20 µg/mL dilution in sterile PBS. Starting from the 5 µg/mL working stock, a series of six 1:4 serial dilutions were made by mixing 100 µL of the previous highest dilution with 300 µL sterile PBS.
(§3) The secreted embryonic alkaline phosphatase (SEAP) reporter is under the control of a promoter inducible by the transcription factor NF-κB. This reporter gene allows the monitoring of signaling through the TLR, based on the activation of NF-κB. In a 96-well plate (200 µL total volume) containing the appropriate cells (50,000 - 75,000 cells/well), 20 µL of the test article or the positive control ligand (HKLC) is added to the wells. The media added to the wells is designed for the detection of NF-κB induced SEAP expression. After a 16-24-hour incubation the optical density (OD) is read at 650 nm on a Molecular Devices SpectraMax 340PC absorbance detector.

[2] = system: HEK-Blue Null1 cells; assay: TLR- control cell line HEK-Blue Null1 (control for human TLR2); format: cell-based
Procedure: as §3

[3] = biological target: T2, human TLR2 (Homo sapiens, UniProt O60603); assay: Activation of human TLR2 III: HEK-Blue hTLR2 dose response (SEAP reporter); format: cell-based; settings: for optical density (650 nm): screenings 1-3; for stimulatory / agonist activity for hTLR2 (in words) / fold induction at 120 fg/mL / fold induction at 490 fg/mL / fold induction at 1.95 pg/mL / fold induction at 7.81 pg/mL / fold induction at 31.25 pg/mL / fold induction at 0.000125 µg/mL / fold induction at 0.0005 µg/mL: HEK-Blue hTLR2; for fold induction at 120 fg/mL / fold induction at 490 fg/mL / fold induction at 1.95 pg/mL / fold induction at 7.81 pg/mL / fold induction at 31.25 pg/mL / fold induction at 0.000125 µg/mL / fold induction at 0.0005 µg/mL: read-out: Fold Induction (ratio of average induced value to average non-induced value); for EC50: agonism of hTLR2, HEK-Blue hTLR2
T2 construct: expressed in transfected cells; host or cells: HEK-Blue hTLR2 cells
T2 sequence (O60603 21-784): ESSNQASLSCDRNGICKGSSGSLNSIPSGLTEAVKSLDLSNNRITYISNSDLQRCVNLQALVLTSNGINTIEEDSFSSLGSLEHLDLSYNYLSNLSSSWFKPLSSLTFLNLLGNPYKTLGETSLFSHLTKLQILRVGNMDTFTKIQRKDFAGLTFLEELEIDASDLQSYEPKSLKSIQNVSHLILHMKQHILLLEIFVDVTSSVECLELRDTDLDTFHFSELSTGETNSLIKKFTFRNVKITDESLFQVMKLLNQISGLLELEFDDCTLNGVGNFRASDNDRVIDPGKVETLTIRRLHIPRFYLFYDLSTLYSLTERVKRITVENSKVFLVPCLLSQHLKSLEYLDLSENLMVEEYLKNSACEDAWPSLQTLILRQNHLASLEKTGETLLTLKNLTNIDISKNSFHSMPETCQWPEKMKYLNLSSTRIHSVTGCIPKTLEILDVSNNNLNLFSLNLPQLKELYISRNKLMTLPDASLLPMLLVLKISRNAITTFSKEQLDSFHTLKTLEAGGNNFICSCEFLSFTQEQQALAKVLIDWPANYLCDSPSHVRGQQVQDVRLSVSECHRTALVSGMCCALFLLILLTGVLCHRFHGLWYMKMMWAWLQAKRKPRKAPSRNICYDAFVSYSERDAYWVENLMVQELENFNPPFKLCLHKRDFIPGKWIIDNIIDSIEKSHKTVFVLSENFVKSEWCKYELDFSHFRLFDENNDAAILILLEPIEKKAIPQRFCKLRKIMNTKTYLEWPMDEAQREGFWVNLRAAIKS
T2 sequence (Q9Y2C9 32-796 partner): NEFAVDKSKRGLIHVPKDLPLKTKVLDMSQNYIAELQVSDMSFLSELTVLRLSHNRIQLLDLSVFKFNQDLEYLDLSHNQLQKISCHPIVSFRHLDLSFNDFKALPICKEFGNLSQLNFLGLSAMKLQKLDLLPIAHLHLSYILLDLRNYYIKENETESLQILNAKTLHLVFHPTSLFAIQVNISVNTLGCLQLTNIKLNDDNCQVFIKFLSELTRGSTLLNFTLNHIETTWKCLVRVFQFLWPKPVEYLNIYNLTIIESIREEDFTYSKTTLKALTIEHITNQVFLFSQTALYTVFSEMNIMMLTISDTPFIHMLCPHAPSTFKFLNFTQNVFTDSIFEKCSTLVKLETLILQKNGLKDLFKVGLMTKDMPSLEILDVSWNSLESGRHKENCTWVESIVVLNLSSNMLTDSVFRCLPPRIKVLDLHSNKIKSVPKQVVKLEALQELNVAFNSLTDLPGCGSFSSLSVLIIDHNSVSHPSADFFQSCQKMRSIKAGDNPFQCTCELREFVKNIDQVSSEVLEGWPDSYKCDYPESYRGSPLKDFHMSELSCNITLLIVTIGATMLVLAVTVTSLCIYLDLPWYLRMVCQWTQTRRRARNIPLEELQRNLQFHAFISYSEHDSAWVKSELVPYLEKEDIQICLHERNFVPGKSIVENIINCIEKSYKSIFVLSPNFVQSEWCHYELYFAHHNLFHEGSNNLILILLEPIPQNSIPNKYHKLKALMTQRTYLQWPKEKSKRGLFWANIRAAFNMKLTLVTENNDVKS
Procedure: as §1, §2, §3

[4] = Stability III: accelerated aging at 40° C., 3 or 6 weeks, HPLC recovery; format: physicochemical
Procedure: Recovery of the target compound was assessed by HPLC, and the values as a percentage of the reference sample are reported in Table 14 and in FIG. 5.

[5] = system: HEK-Blue Null2 cells; assay: TLR- control cell line HEK-Blue Null2 (control for mouse TLR2); format: cell-based
Procedure: as §3

T1 sequence (Q9QUN7 25-784): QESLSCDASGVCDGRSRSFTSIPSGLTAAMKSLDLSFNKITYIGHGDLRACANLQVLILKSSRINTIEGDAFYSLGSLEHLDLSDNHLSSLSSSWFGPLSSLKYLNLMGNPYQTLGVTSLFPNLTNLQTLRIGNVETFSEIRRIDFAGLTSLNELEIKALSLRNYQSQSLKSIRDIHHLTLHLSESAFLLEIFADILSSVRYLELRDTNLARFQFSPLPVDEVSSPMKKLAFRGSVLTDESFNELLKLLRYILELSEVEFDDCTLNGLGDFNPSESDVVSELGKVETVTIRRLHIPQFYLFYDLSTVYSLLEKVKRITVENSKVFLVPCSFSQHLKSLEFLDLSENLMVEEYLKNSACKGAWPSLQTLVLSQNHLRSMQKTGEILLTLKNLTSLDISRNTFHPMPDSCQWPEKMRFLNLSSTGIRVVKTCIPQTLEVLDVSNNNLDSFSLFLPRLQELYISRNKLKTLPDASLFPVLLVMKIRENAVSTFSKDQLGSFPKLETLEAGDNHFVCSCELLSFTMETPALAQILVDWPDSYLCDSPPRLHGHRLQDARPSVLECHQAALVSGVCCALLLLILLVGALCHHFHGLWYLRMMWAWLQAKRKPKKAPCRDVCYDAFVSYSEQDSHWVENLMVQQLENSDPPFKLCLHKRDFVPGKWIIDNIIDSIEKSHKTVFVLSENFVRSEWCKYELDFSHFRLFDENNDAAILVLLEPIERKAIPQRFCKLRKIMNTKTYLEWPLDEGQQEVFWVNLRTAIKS
T1 sequence (Q9Y2C9 32-796 partner): as the sequence (Q9Y2C9 32-796 partner) above

| Compound | stimulatory / agonist activity for mTLR2 (in words) [1] | stimulatory response in HEK-Blue Null1 (human) cells (in words) [2] | Average optical density (650 nm) ([3]; 0.12 pg/mL) | optical density (650 nm) ([3]; 0.12 pg/mL) | Average optical density (650 nm) ([3]; 0.49 pg/mL) | optical density (650 nm) ([3]; 0.49 pg/mL) | Average optical density (650 nm) ([3]; 1.95 pg/mL) | optical density (650 nm) ([3]; 1.95 pg/mL) | Average optical density (650 nm) ([3]; 7.81 pg/mL) | optical density (650 nm) ([3]; 7.81 pg/mL) | Average optical density (650 nm) ([3]; 31.25 pg/mL) | optical density (650 nm) ([3]; 31.25 pg/mL) | Average optical density (650 nm) ([3]; 125 pg/mL) | optical density (650 nm) ([3]; 125 pg/mL) | Average optical density (650 nm) ([3]; 500 pg/mL) | optical density (650 nm) ([3]; 500 pg/mL) | stimulatory / agonist activity for hTLR2 (in words) [3] | fold induction at 120 fg/mL ([3]; 0.12 pg/mL) | fold induction at 490 fg/mL ([3]; 0.49 pg/mL) | fold induction at 1.95 pg/mL ([3]; 1.95 pg/mL) | other results |
| --- | --- | --- | --- | --- | --- | --- | --- | --- | --- | --- | --- | --- | --- | --- | --- | --- | --- | --- | --- | --- | --- |
| CCCCCCCCCCCCCC[C@@H](C)C(=O)OCC[C@H](CSC[C@H](N)C(=O)N[C@@H](CO)C(=O)NCCOCCOCCOCCOCCOCCOCCOCCOCCOCCOCCOCCOCCOCCOCCOCCOCCOCCOCCOCCOCCOCCOCCOCCOCCOCCOCCOCCOCCC(=O)NCC(N)=O)OC(=O)[C@H](C)CCCCCCCCCCCCCC [Compound B14] | stimulatory activity | not observed | 0.823 | 0.826 and 0.869 and 0.774 | 1.342 | 1.256 and 1.364 and 1.406 | 2.018 | 1.994 and 2.061 and 2.000 | 2.562 | 2.569 and 2.545 and 2.571 | 2.744 | 2.820 and 2.720 and 2.691 | 2.814 | 2.928 and 2.800 and 2.713 | 2.759 | 2.722 and 2.765 and 2.791 | stimulatory activity | 18.7 | 25.5 | 28 | fold induction at 7.81 pg/mL ([3]; 7.81 pg/mL): 33; fold induction at 31.25 pg/mL ([3]; 31.25 pg/mL): 33.7; fold induction at 0.000125 µg/mL ([3]; 125 pg/mL): 35.2; fold induction at 0.0005 µg/mL ([3]; 500 pg/mL): 33.9; EC50 [3]: 264 pM; stability under accelerated storage conditions (in words) [4]: excellent stabilities; stimulatory response in HEK-Blue Null2 (mouse) cells (in words) [5]: not observed |
| CCCCCCCCCCCCCC[C@H](C)C(=O)OCC[C@H](CSC[C@H](N)C(=O)N[C@@H](CO)C(=O)NCCOCCOCCOCCOCCOCCOCCOCCOCCOCCOCCOCCOCCOCCOCCOCCOCCOCCOCCOCCOCCOCCOCCOCCOCCOCCOCCOCCOCCC(=O)NCC(N)=O)OC(=O)[C@@H](C)CCCCCCCCCCCCCC [Compound B16] | stimulatory activity | not observed | 0.666 | 0.688 and 0.591 and 0.718 | 1.099 | 1.080 and 1.097 and 1.121 | 1.521 | 1.478 and 1.513 and 1.573 | 1.978 | 1.903 and 1.897 and 2.133 | 2.252 | 2.093 and 2.297 and 2.367 | 2.540 | 2.531 and 2.544 and 2.545 | 2.475 | 2.466 and 2.488 and 2.472 | stimulatory activity | 9.2 | 15.3 | 21.1 | fold induction at 7.81 pg/mL ([3]; 7.81 pg/mL): 27.5; fold induction at 31.25 pg/mL ([3]; 31.25 pg/mL): 31.3; fold induction at 0.000125 µg/mL ([3]; 125 pg/mL): 35.3; fold induction at 0.0005 µg/mL ([3]; 500 pg/mL): 34.4; EC50 [3]: 504 pM; stability under accelerated storage conditions (in words) [4]: excellent stabilities; stimulatory response in HEK-Blue Null2 (mouse) cells (in words) [5]: not observed |
